This is an account of results in patent US20110184018A1, “METHOD FOR TREATING PERIPHERAL NEUROPATHIC PAIN” (LOHOCLA RESEARCH CORPORATION, priority 2005, published 2011).

The subject of one assay is C57BL/6 mice. Description: Elevated-plus maze (anxiolytic effects). It is filed as in vivo, mouse. As to conditions: i.p., about 60 minutes before testing. On the procedure:
In Panel A, mice were administered (i.p.) the indicated doses of DCUK-OEt about 60 minutes before behavioral testing on the elevated-plus maze. The number of times entered and the time spent in the open arms of the plus-maze were recorded. In Panel B, groups of mice were administered (i.p.) 50 mg/kg DCUK-OEt in an injection vehicle (5% TWEEN 80/0.5% methylcellulose) and tested at the indicated times with comparison to mice injected with vehicle alone. In both panels, mice treated with vehicle alone (i.e., absent the DCUKA compound) were tested 60 minutes after injection of vehicle. A greater percent of time spent in the open arms indicates an anxiolytic action of the drug. Significant differences in the percent time spent on the open arms of the maze are evident at doses as low as 25mg/kg. […]
The anxiolytic effect of the DCUK-OMe was tested in C57BL/6 mice with an elevated-plus maze apparatus. […] A trained observer blind to the treatment conditions scored the number of entries into open arms and the number of entries into closed arms over a 5-minutes period. […] The percentage of open arm entries (open arm entries/total arm entries) was calculated for each animal and used as a measure of the anxiolytic/anxiogenic effects of drug treatment. In addition, the total number of entries made into the […] was recorded as a measure of drug effects on locomotor activity. […]

The target of assay [1] is T1, glycine recognition site of the NMDA receptor complex (Rattus norvegicus, UniProt P35439).
T1 construct: The telencephalon (cerebral cortex, hippocampus, and striatum) was dissected and homogenized; from tissue; host or cells: rat telencephalon membranes (cerebral cortex, hippocampus, striatum), Triton X-100 treated
Put plainly: [3H]5,7-DCKA binding assay. The following applies: rat cortical membranes; none = no displacement at 100 μM. On the procedure:
General receptor-binding procedures. Male Sprague-Dawley rats were decapitated and their brains removed rapidly. The telencephalon (cerebral cortex, hippocampus, and striatum) was dissected and homogenized in 20 volumes of ice-cold 0.32 M sucrose, 20 mM HEPES-KOH (pH 7.2 at room temperature) containing protease inhibitors ([…], 5 mg/mL antipain, 20 mg/mL soybean trypsin inhibitor, 500 μM benzamidine, […] aprotinin, and 500 μM phenylmethylsulfonyl fluoride) with a motor driven glass-TEFLON® fluorocarbon homogenizer (8-10 strokes at setting 1). The homogenate was centrifuged at 800 g for 10 minutes. The pellet was discarded and the supernatant was centrifuged at 20,000 g for 20 minutes. The resulting pellet was resuspended in 20 volumes of distilled water containing 500 μM benzamidine and centrifuged for 20 minutes at 7500 g. Then the supernatant and buffy coat were centrifuged three times (51,500 g for 20 minutes) in the presence of distilled water containing 500 μM benzamidine. All centrifugation steps were carried out at 4° C. The final pellet was frozen rapidly at −80° C.
On the day of the assay, the pelleted membranes were resuspended in 20 volumes of 50 mM HEPES-KOH buffer, pH 7.4, and incubated for 20 minutes at 37° C. followed by centrifugation (51,500 g for 20 minutes). Membranes were then resuspended in 50 mM HEPES-KOH buffer (pH 7.8) containing 0.08% Triton X-100. After stirring for 30 minutes at 4° C., the membranes were pelleted by centrifugation (100,000 g for 20 minutes). The membranes were then washed twice by resuspension in the buffer appropriate for the binding assay and centrifugation (100,000 g for 20 minutes). The final pellet was suspended in assay buffer. The amount of protein in the final membrane preparation was determined with the bicinchoninic acid method (BCA; Pierce Chemical Co., Rockford, Ill.). The final protein concentration used for our studies was 300 to 600 μg/mL. Receptor-binding protocols described below were adapted from published procedures. For all assays, the samples, all in duplicate or triplicate, were placed into scintillation vials containing 5.5 mL of scintillation liquid (Ultima Gold; Packard Instrument Co., Inc., Meriden, Conn.) and the retained radioactivity was determined by conventional scintillation spectroscopy with a Beckman TA-6000 scintillation counter. Radio-ligands were purchased from DuPont-NEN (Boston, Mass.).
[^3H]5,7-Dichlorokynurenic acid (5,7-DCKA)-binding assay. The glycine recognition site of the NMDA receptor complex was labeled with the competitive antagonist [^3H]5,7-dichlorokynurenic acid (5,7-DCKA). […]
Data Analysis. The data were analyzed with SigmaPlot 5.0 and SigmaStat 2.0 (Jandel Scientific, Corte Madera, Calif.) software. […]

On to `CCOC(=O)c1cc(NC(=O)N(c2ccccc2)c2ccccc2)c2c(Cl)cc(Cl)cc2n1` [DCUK-OEt, N,N-diphenyl-4-ureido-5,7-dichloro-2-carboxy quinoline ethyl ester], for which the “lowest dose with significant differences in percent time spent on the open arms” value in the assay on C57BL/6 mice turned out to be 25 mg/kg.
`O=C(O)c1cc(NC(=O)N(c2ccccc2)c2ccccc2)c2c(Cl)cc(Cl)cc2n1` [DCUKA, N,N-diphenyl-4-ureido-5,7-dichloro-2-carboxyquinoline]: the half-inhibitory concentration (IC50) (in general, the concentration at which inhibition is half-maximal) in assay [1] amounted to 28 µM.
